Results reported in paper PMC3071652 (Cell, 2011).
Positions count from the first letter of the chain named. In names and notes the source's numbering stands.

B1: Thermotoga maritima Rad50^NBD (residues 1-190 and 686-852 joined by the linker GGAGGAGG) (domain or fragment)
chain: MRPERLTVRNFLGLKNVDIEFQSGITVVEGPNGAGKSSLFEAISFALFGNGIRYPNSYDYVNRNAVDGTARLVFQFERGGKRYEIIREINALQRKHNAKLSEILENGKKAAIAAKPTSVKQEVEKILGIEHRTFIRTVFLPQGEIDKLLISPPSEITEIISDVFQSKETLEKLEKLLKEKMKKLENEISSGGAGGAGGSLEKKLKEMSDEYNNLDLLRKYLFDKSNFSRYFTGRVLEAVLKRTKAYLDILTNGRFDIDFDDEKGGFIIKDWGIERPARGLSGGERALISISLAMSLAEVASGRLDAFFIDEGFSSLDTENKEKIASVLKELERLNKVIVFITHDREFSEAFDRKLRITGGVVVNE
B2: Thermotoga maritima Mre11 S110C (enzyme, UniProt Q9X1X0 7-385, looked up)
chain: MKILHTSDWHLGVTSWTSSRPVDRREELKKALDKVVEEAEKREVDLILLTGDLLHSRNNPSVVALHDLLDYLKRMMRTAPVVVLPGNHDWKGLKLFGNFVTSICSDITFVMSFEPVDVEAKRGQKVRILPFPYPDESEALRKNEGDFRFFLESRLNKLYEEALKKEDFAIFMGHFTVEGLAGYAGIEQGREIIINRALIPSVVDYAALGHIHSFREIQKQPLTIYPGSLIRIDFGEEADEKGAVFVELKRGEPPRYERIDASPLPLKTLYYKKIDTSALKSIRDFCRNFPGYVRVVYEEDSGILPDLMGEIDNLVKIERKSRREIEEVLRESPEEFKEELDKLDYFELFKEYLKKREENHEKLLKILDELLDEVKKSEA
B3: Thermotoga maritima Mre11 (residues L7M-385) (enzyme, UniProt Q9X1X0 7-385, looked up)
chain: B2 chain with C104S

Tests used:
[1] = biological target: T1, TmMre11:Rad50^NBD (TmMR^NBD catalytic head) (Thermotoga maritima, UniProt Q9X1X1, DEL191-685); experiment: SAXS, compaction of catalytic head; assay type: binding; settings: 50 mM Tris pH 7.7, 100 mM NaCl, 5 mM MnCl2, 10 mM MgCl2
T1 sequence (Q9X1X0 7-385 L7M, one chain of several): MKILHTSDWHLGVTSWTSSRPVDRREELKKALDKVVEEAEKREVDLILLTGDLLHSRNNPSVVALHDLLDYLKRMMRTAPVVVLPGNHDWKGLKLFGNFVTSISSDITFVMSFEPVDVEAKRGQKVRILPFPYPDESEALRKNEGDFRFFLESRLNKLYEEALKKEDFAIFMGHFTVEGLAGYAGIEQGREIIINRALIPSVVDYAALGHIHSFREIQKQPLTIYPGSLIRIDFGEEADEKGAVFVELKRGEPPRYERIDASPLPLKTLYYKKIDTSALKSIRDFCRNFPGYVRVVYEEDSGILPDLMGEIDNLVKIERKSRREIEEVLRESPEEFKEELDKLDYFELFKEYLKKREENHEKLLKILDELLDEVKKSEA

[2] = biological target: T1, TmMre11:Rad50^NBD (TmMR^NBD catalytic head); experiment: SPR and EMSA, nucleotide-stimulated DNA binding; assay type: biochemical; settings: dsDNA 50mer, hairpin DNA
[3] = biological target: TmMre11:Rad50^NBD (TmMR^NBD catalytic head) (Thermotoga maritima, UniProt Q9X1X1, DEL191-685, form not given); experiment: reduced BMOE crosslinking of Mre11 dimer, SDS PAGE; assay type: binding; settings: nucleotide binds Rad50; read-out at Mre11 dimer interface
[4] = biological target: T1, TmMre11:Rad50^NBD (TmMR^NBD catalytic head); experiment: ATPase activity; assay type: biochemical
[5] = biological target: TmMre11:Rad50^NBD (TmMR^NBD catalytic head) (Thermotoga maritima, UniProt Q9X1X1, DEL191-685/D804C/H830C); experiment: ATP-induced disulfide bond formation between Rad50 NBDs; assay type: binding; settings: Cu2+
TmMre11:Rad50^NBD (TmMR^NBD catalytic head) (Thermotoga maritima, UniProt Q9X1X1, DEL191-685/D804C/H830C), sequence (Q9X1X1 686-852 D804C/H830C, one chain of several): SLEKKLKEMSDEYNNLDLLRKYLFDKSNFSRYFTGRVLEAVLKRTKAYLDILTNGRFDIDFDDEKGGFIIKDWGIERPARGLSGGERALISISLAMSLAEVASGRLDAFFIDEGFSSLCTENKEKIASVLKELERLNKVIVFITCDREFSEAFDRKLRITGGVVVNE
TmMre11:Rad50^NBD (TmMR^NBD catalytic head) (Thermotoga maritima, UniProt Q9X1X1, DEL191-685/D804C/H830C), sequence (Q9X1X0 7-385 L7M, one chain of several, further chain): as the sequence (Q9X1X0 7-385 L7M, one chain of several) above

[6] = biological target: TmMre11:Rad50^NBD (TmMR^NBD catalytic head) (Thermotoga maritima, UniProt Q9X1X1, N64C/DEL191-685/I760C); experiment: ATP-dependent BMOE crosslinking of Rad50 NBDs, SDS PAGE; assay type: binding
TmMre11:Rad50^NBD (TmMR^NBD catalytic head) (Thermotoga maritima, UniProt Q9X1X1, N64C/DEL191-685/I760C), sequence (Q9X1X0 7-385 L7M): as the sequence (Q9X1X0 7-385 L7M, one chain of several) above
TmMre11:Rad50^NBD (TmMR^NBD catalytic head) (Thermotoga maritima, UniProt Q9X1X1, N64C/DEL191-685/I760C), sequence (Q9X1X1 1-190 N64C): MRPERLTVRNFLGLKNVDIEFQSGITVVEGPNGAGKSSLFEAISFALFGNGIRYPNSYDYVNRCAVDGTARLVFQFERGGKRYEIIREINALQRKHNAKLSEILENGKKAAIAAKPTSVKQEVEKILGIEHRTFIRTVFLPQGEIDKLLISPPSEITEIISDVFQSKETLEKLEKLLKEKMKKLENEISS
TmMre11:Rad50^NBD (TmMR^NBD catalytic head) (Thermotoga maritima, UniProt Q9X1X1, N64C/DEL191-685/I760C), sequence (Q9X1X1 686-852 I760C): as the sequence (Q9X1X1 686-852 D804C/H830C, one chain of several) above, with I75C, C119D, C145H counted along it

[7] = biological target: TmMre11:Rad50^NBD (TmMR^NBD catalytic head) (Thermotoga maritima, UniProt Q9X1X1, DEL191-685/D804C/H830C, form not given); experiment: ATP-induced disulfide bond formation between Rad50 NBDs; assay type: binding; settings: Cu2+
TmMre11:Rad50^NBD (TmMR^NBD catalytic head) (Thermotoga maritima, UniProt Q9X1X1, DEL191-685/D804C/H830C, form not given), sequence (Q9X1X0 7-385 L7M/F291S, form open, one chain of several, further chain): as the sequence (Q9X1X0 7-385 L7M, one chain of several) above, with F285S counted along it
TmMre11:Rad50^NBD (TmMR^NBD catalytic head) (Thermotoga maritima, UniProt Q9X1X1, DEL191-685/D804C/H830C, form not given), sequence (Q9X1X1 686-852 D804C/H830C, form open, one chain of several): as the sequence (Q9X1X1 686-852 D804C/H830C, one chain of several) above

[8] = biological target: B3; experiment: crystal structure
co-purification = biological target: the molecule itself; experiment: co-purification
crystal structure = biological target: the molecule itself; experiment: crystal structure

## Nc1ncnc2c1ncn2[C@@H]1O[C@H](COP(=O)(O)OP(=O)(O)OP(O)(O)=S)[C@@H](O)[C@H]1O [ATPγS]
[1]
  SAXS, compaction of catalytic head (radius of gyration): Adding ATPγS indeed resulted in a substantial decrease of the radius of gyration (Rg)

## Nc1ncnc2c1ncn2[C@@H]1O[C@H](COP(=O)(O)OP(=O)(O)NP(=O)(O)O)[C@@H](O)[C@H]1O [AMPPNP]
[2]
  SPR and EMSA, nucleotide-stimulated DNA binding: SPR showed a strong effect of AMPPNP on dsDNA and hairpin DNA binding by TmMre11:Rad50^NBD

## Nc1ncnc2c1ncn2[C@@H]1O[C@H](COP(=O)(O)OP(=O)(O)OP(=O)(O)O)[C@@H](O)[C@H]1O [ATP]
[3]
  reduced BMOE crosslinking of Mre11 dimer, SDS PAGE: ATP, AMPPNP and ATPγS reduced the ability of BMOE to crosslink Mre11 S110C dimers
[4]
  ATPase activity: Both proteins form a stoichiometric complex with ATPase as well as DNA binding activity
[5]
  ATP-induced disulfide bond formation between Rad50 NBDs: ATP induced formation of a disulfide bond between D804C and H830C
[6]
  ATP-dependent BMOE crosslinking of Rad50 NBDs, SDS PAGE: crosslink the two NBDs in the presence of ATP, but not in the absence of ATP
[7]
  ATP-induced disulfide bond formation between Rad50 NBDs: we can now efficiently crosslink the NBDs by disulfide bond formation

## B1
[8]
  binding result: binds

## B2
co-purification
  binding result: binds

## B3
Crystal structure
  stoichiometry N: 2
